Experimental data as given in US6995143B2, “Macrolides with antibacterial activity” (Basilea Pharmaceutica AG, priority 2002, dated 2006).
Values after ≈ are worked out from the molar mass of the structure shown.

Assays:
Format in all cases: cell-based
[1] = system: Haemophilus influenzae B1501; test: MIC, standard agar dilution method using HTM medium
Summary of the method: (§1)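 Per NCCLS standard M7-A5 (aerobic growers), activity against Haemophilus influenzae is reported as MIC.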

[2] = system: Haemophilus influenzae QK50; test: as above
Summary of the method: as §1

[3] = system: Haemophilus influenzae 12214; test: as above
Summary of the method: as §1

[4] = system: Haemophilus influenzae QK12/87; test: as above
Summary of the method: as §1

[5] = system: Streptococcus pneumoniae ¼; test: MIC, standard microdilution technique
Summary of the method: (§2)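 Following NCCLS document M7-A5, compounds are serially diluted in microtiter format against each strain, and the minimal inhibitory concentration is taken as the endpoint.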

[6] = system: Staphylococcus aureus 1086; test: MIC, standard microdilution technique
Summary of the method: as §2

[7] = system: Streptococcus pneumoniae SL199T; test: MIC, standard microdilution technique
Summary of the method: as §2

[8] = system: Streptococcus pneumoniae l/l; test: MIC, standard microdilution technique
Summary of the method: as §2

[9] = system: Staphylococcus aureus 745; test: MIC, standard microdilution technique
Summary of the method: as §2

[10] = system: Escherichia coli ATCC 25922; test: MIC, standard microdilution technique
Summary of the method: as §2

[11] = system: Staphylococcus aureus ATCC 29213; test: MIC, standard microdilution technique
Summary of the method: as §2

[12] = system: Streptococcus pneumoniae 12288; test: MIC, standard microdilution technique
Summary of the method: as §2

Compound	minimum inhibitory concentration (MIC), Strain M [1] [µg/mL]	minimum inhibitory concentration (MIC), Strain L [2] [µg/mL]	minimum inhibitory concentration (MIC), Strain K [3] [µg/mL]	minimum inhibitory concentration (MIC), Strain I [4] [µg/mL]	minimum inhibitory concentration (MIC), Strain F [5]	minimum inhibitory concentration (MIC), Strain B [6]	minimum inhibitory concentration (MIC), Strain G [7] [µg/mL]	minimum inhibitory concentration (MIC), Strain E [8]	minimum inhibitory concentration (MIC), Strain C [9] [µg/mL]	minimum inhibitory concentration (MIC), Strain D [10] [µg/mL]	minimum inhibitory concentration (MIC), Strain A [11]	minimum inhibitory concentration (MIC), Strain H [12] [µg/mL]
CC[C@H]1OC(=O)[C@H](C)C(=O)[C@H](C)[C@@H](O[C@@H]2O[C@H](C)C[C@H](N(C)C)[C@H]2O)[C@](C)(OC)C[C@@H](C)C(=O)[C@H](C)[C@H]2[C@@H](SCC(=O)Nc3ccc4ccccc4n3)C(=O)O[C@@]21C [Example 37]	8 (≈ 9.66 µM)	8 (≈ 9.66 µM)	16 (≈ 19.3 µM)	8 (≈ 9.66 µM)	4 µg/mL (≈ 4.83 µM)	<=0.06 μg/ml	>32	<=0.06 μg/ml	>32	>32	0.125 µg/mL (≈ 0.151 µM)	>32
CC[C@H]1OC(=O)[C@H](C)C(=O)[C@H](C)[C@@H](O[C@@H]2O[C@H](C)C[C@H](N(C)C)[C@H]2O)[C@](C)(OC)C[C@@H](C)C(=O)[C@H](C)[C@H]2[C@@H](SCC(=O)Nc3ccc4ncccc4c3)C(=O)O[C@@]21C [Example 38]	8 (≈ 9.66 µM)	16 (≈ 19.3 µM)	16 (≈ 19.3 µM)	8 (≈ 9.66 µM)	4 µg/mL (≈ 4.83 µM)	<=0.06 μg/ml	8 (≈ 9.66 µM)	<=0.06 μg/ml	>32	>32	<=0.06 μg/ml	32 (≈ 38.6 µM)
CC[C@H]1OC(=O)[C@H](C)C(=O)[C@H](C)[C@@H](O[C@@H]2O[C@H](C)C[C@H](N(C)C)[C@H]2O)[C@](C)(OC)C[C@@H](C)C(=O)[C@H](C)[C@H]2[C@@H](SCC(=O)Nc3cnc4ccccc4c3)C(=O)O[C@@]21C [Example 39]	8 (≈ 9.66 µM)	16 (≈ 19.3 µM)	16 (≈ 19.3 µM)	16 (≈ 19.3 µM)	32 µg/mL (≈ 38.6 µM)	<=0.06 μg/ml	8 (≈ 9.66 µM)	<=0.06 μg/ml	>32	>32	<=0.06 μg/ml	32 (≈ 38.6 µM)
CC[C@H]1OC(=O)[C@H](C)C(=O)[C@H](C)[C@@H](O[C@@H]2O[C@H](C)C[C@H](N(C)C)[C@H]2O)[C@](C)(OC)C[C@@H](C)C(=O)[C@H](C)[C@H]2[C@@H](SCC(=O)Nc3cccc4cnccc34)C(=O)O[C@@]21C [Example 40]	4 (≈ 4.83 µM)	4 (≈ 4.83 µM)	4 (≈ 4.83 µM)	4 (≈ 4.83 µM)	0.125 µg/mL (≈ 0.151 µM)	0.125 µg/mL (≈ 0.151 µM)	0.5 (≈ 0.604 µM)	<=0.06 μg/ml	>32	>32	0.125 µg/mL (≈ 0.151 µM)	4 (≈ 4.83 µM)
CC[C@H]1OC(=O)[C@H](C)C(=O)[C@H](C)[C@@H](O[C@@H]2O[C@H](C)C[C@H](N(C)C)[C@H]2O)[C@](C)(OC)C[C@@H](C)C(=O)[C@H](C)[C@H]2[C@@H](SCCC(=O)Nc3ccc4ncccc4c3)C(=O)O[C@@]21C [Example 41]	8 (≈ 9.5 µM)	16 (≈ 19 µM)	8 (≈ 9.5 µM)	8 (≈ 9.5 µM)	16 µg/mL (≈ 19 µM)	<=0.06 μg/ml	8 (≈ 9.5 µM)	<=0.06 μg/ml	>32	>32	<=0.06 μg/ml	>32
CC[C@H]1OC(=O)[C@H](C)C(=O)[C@H](C)[C@@H](O[C@@H]2O[C@H](C)C[C@H](N(C)C)[C@H]2O)[C@](C)(OC)C[C@@H](C)C(=O)[C@H](C)[C@H]2[C@@H](S(=O)(=O)CCNC(=O)c3ccc4nonc4c3)C(=O)O[C@@]21C [Example 44]	8 (≈ 9.25 µM)	16 (≈ 18.5 µM)	16 (≈ 18.5 µM)	16 (≈ 18.5 µM)	<=0.06 μg/ml	0.125 µg/mL (≈ 0.145 µM)	16 (≈ 18.5 µM)	<=0.06 μg/ml	>32	>32	0.5 µg/mL (≈ 0.578 µM)	>32
CC[C@H]1OC(=O)[C@H](C)C(=O)[C@H](C)[C@@H](O[C@@H]2O[C@H](C)C[C@H](N(C)C)[C@H]2O)[C@](C)(OC)C[C@@H](C)C(=O)[C@H](C)[C@H]2[C@@H](SCC(=O)c3ccc(OC)cc3OC)C(=O)O[C@@]21C [Example 45]	4 (≈ 4.87 µM)	8 (≈ 9.73 µM)	8 (≈ 9.73 µM)	8 (≈ 9.73 µM)	0.5 µg/mL (≈ 0.608 µM)	0.25 µg/mL (≈ 0.304 µM)	16 (≈ 19.5 µM)	<=0.06 μg/ml	>32	>32	0.25 µg/mL (≈ 0.304 µM)	>32
CC[C@H]1OC(=O)[C@H](C)C(=O)[C@H](C)[C@@H](O[C@@H]2O[C@H](C)C[C@H](N(C)C)[C@H]2O)[C@](C)(OC)C[C@@H](C)C(=O)[C@H](C)[C@H]2[C@@H](SCCNc3ncnc4[nH]cnc34)C(=O)O[C@@]21C [Example 51]	2 (≈ 2.48 µM)	1 (≈ 1.24 µM)	4 (≈ 4.97 µM)	1 (≈ 1.24 µM)	0.125 µg/mL (≈ 0.155 µM)	1 µg/mL (≈ 1.24 µM)	0.5 (≈ 0.621 µM)	<=0.06 μg/ml	>32	32 (≈ 39.8 µM)	1 µg/mL (≈ 1.24 µM)	8 (≈ 9.94 µM)
CC[C@H]1OC(=O)[C@H](C)C(=O)[C@H](C)[C@@H](O[C@@H]2O[C@H](C)C[C@H](N(C)C)[C@H]2O)[C@](C)(OC)C[C@@H](C)C(=O)[C@H](C)[C@H]2[C@@H](SCCNc3nc(C)nc4ccc(Br)cc34)C(=O)O[C@@]21C [Example 52]	8 (≈ 8.81 µM)	8 (≈ 8.81 µM)	16 (≈ 17.6 µM)	8 (≈ 8.81 µM)	0.125 µg/mL (≈ 0.138 µM)	<=0.06 μg/ml	4 (≈ 4.41 µM)	<=0.06 μg/ml	>32	>32	0.125 µg/mL (≈ 0.138 µM)	8 (≈ 8.81 µM)
